Measurements as given in US6355630B1, “Estra-1,3,5(10)-triene-7α-thioethers” (priority 1997, dated 2002).
pIC50: −log10 of the molar value.

Assays:
human estrogen receptor = target: T1, human estrogen receptor (Homo sapiens, UniProt P03372); assay: In vitro estrogen receptor binding test procedure ([3H]-17β-estradiol competition)
T1 construct: expressed in transfected cells; host or cells: Chinese Hamster ovary (CHO) cells; ribosome-free cytosol
T1 sequence (P03372 1-595): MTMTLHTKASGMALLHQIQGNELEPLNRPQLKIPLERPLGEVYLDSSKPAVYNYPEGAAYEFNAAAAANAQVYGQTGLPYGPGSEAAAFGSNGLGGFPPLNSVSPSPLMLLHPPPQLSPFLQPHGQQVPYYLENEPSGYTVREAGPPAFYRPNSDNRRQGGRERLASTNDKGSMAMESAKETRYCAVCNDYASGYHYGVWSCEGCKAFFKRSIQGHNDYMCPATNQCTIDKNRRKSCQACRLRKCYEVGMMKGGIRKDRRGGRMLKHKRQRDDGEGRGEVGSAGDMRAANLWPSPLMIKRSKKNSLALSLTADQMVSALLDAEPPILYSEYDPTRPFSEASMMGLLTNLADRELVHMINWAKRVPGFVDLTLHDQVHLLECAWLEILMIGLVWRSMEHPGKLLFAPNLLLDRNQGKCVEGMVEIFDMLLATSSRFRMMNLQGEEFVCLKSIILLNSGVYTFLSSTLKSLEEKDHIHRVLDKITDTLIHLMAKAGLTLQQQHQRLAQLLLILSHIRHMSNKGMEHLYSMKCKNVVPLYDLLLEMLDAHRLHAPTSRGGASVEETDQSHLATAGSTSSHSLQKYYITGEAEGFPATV
Method: In vitro Estrogen Receptor Binding Test Procedure
Chinese Hamster ovary (CHO) cells overexpressing the estrogen receptor were grown in […] dishes in DMEM+10% dextran coated charcoal, stripped fetal bovine serum. The plates were washed twice with PBS and once with 10 mM Tris-HCl, pH 7.4, 1 mM EDTA. Cells were harvested by scraping the surface and then the cell suspension was placed on ice. Cells were disrupted with a hand-held motorized tissue grinder using two, 10-second bursts. The crude preparation was centrifuged at 12,000 g for 20 minutes followed by a 60 minute spin at 100,000 G to produce a ribosome free cytosol. The cytosol was then frozen and stored at −80° C. Protein concentration of the cytosol was estimated using the BCA assay with reference standard protein.
Binding Test Procedure Conditions
100 uG/100 uL of the receptor preparation was aliquoted per well. […] The plate was incubated at room temperature for 2.5 h. At the end of this incubation period 150 uL of ice-cold dextran coated charcoal (5% activated charcoal coated with 0.05% 69K dextran) was added to each well and the plate was immediately centrifuged at 99 g for 5 minutes at 4° C. 200 uL of the supernatant solution was then removed for scintillation counting. Samples were counted to 2% or 10 minutes, whichever occurs first. […] Also, wells containing radioactivity but no cytosol were processed with charcoal to estimate unremovable DPM of [^3H] […] 96-well plates were used because they have proven to bind the least amount of estradiol.
Counts per minute (CPM) of radioactivity were automatically converted to disintegrated per minute (DPM) by the Beckman LS 7500 Scintillation Counter using a set of quenched standards to generate a H# for each sample. To calculate the % of estradiol binding in the presence of 100 or 500 fold competitor the following formula was applied:
((DPM sample−DPM not removed by charcoal/(DPM estradiol−DPM not removed by charcoal))×100%=% of estradiol binding
For the generation of IC50 curves, % binding is plotted vs compound. […] Values are reported as IC50 values. […] For a description of these methods, see Hulme, E. C., ed. 1992. Receptor-Ligand Interactions: A Practical Approach. IRL Press, New York.(see especially chapter 8).
Compounds were tested for their ability to displace estradiol in a human ER-receptor preparation as described above.

Ishikawa uterine cells = assay: Ishikawa cell alkaline phosphatase test procedure; type: cell-based, human; settings: for Alkaline phosphatase activity, percent of response related to 1 nM 17β-estradiol: 48 h
Method: Ishikawa Cell Alkaline Phosphatase Test Procedure
Cell Maintenance and Treatment
Ishikawa cells were maintained in DMEM/F12 (50%:50%) containing phenol red+10% fetal bovine serum and the medium was supplemented with 2 mM Glutamax, 1% Pen/Strap and 1 mM sodium pyruvate. Five days prior to the beginning of each evaluation (treatment of cells) the medium was changed to phenol red-free DMEM/F12+10% dextran coated charcoal stripped serum. On the day before treatment, cells were harvested using 0.5% trypsin/EDTA and plated at a density of 5×10^4 cells/well in 96-well tissue culture plates. […] Cells were treated for 48 h prior to assay. […] Sample population for at each dose was n=8.
Alkaline Phosphatase Test Procedure
At the end of 48 h the media was aspirated and cells were washed three times with phosphate buffered saline (PBS); 50 μL of lysis buffer (0.1 M Tris-HCl, pH 9.8, 0.2% Triton X-100) was added to each well. Plates were placed at −80° C. for a minimum of 15 minutes. Plates were thawed at 37° C. followed by the addition of 150 μL of 0.1 M Tris-HCl, pH 9.8, containing 4 mM para-nitrophenylphosphate (pNPP) to each well (final concentration, 3 mM pNPP).
Absorbance and slope calculations were made using the KineticCalc Application program (Bio-Tek Instruments, Inc., Winooski, Vt.). Results are expressed as the mean +/−S.D. of the rate of enzyme reaction (slope) averaged over the linear portion of the kinetic reaction curve (optical density readings every 5 minutes for 30 minutes absorbance reading).
The four compounds were used as reference standards:
A description of these methods is described by Holinka, C. F., Hata, H., Kuramoto, H. and Gurpide, E. (1986) Effects of steroid hormones and antisteroids on alkaline phosphatase activity in human endometrial cancer cells (Ishikawa Line). Cancer Research, 46:2771-2774, and by Littlefield, B. A., Gurpide, E., Markiewicz, L., McKinley, B. and Hochberg, R. B. (1990) A simple and sensitive microtiter plate estrogen bioassay based on stimulation alkaline phosphatase in Ishikawa cells; Estrogen action of D5 adrenal steroids. Endocrinology, 6:2757-2762.

rat uterus = assay: Rat uterotrophic/antiuterotrophic test procedure; type: in vivo; settings: for Uterine wet weight: daily ip, 4-day immature rat
Method: Rat Uterotrophic/Antiuterotrophic Test Procedure
The estrogenic and antiestrogenic properties of the compounds were determined in a 4-day immature rat uterotrophic assay (as described previously by L. J. Black and R. L. Goode, Life Sciences, 26, 1453 (1980)). Immature Sprague-Dawley rats (female, 18 days old) were tested in groups of six. […] On day 4 the animals were sacrificed by CO2 asphyxiation and their uteri were removed and stripped of excess lipid, any fluid removed and the wet weight determined. A small section of one horn was submitted for histology and the remainder used to isolate total RNA in order to evaluate complement component 3 gene expression.
Representative compounds of this invention were evaluated in the rat uterotrophic/antiuterotrophic assay to determine their in vivo effects on the rat uterus.

## CCCCN(C)C(=O)CCCCCCCCCCS[C@@H]1Cc2cc(O)ccc2[C@H]2CC[C@]3(C)[C@@H](O)CC[C@H]3[C@@H]21 [Example 18, (7α,17β) 7-[10-(N-Butyl-N-methyl-carbamoyl)-decyl]thio-estra-1,3,5(10)-triene-3,17-diol]
Human estrogen receptor
  pIC50: 7.00
Ishikawa uterine cells; 0.01 uM compound, agonist mode
  Alkaline phosphatase activity, percent of response related to 1 nM 17β-estradiol: 0%
Ishikawa uterine cells; 0.1 uM compound, agonist mode
  Alkaline phosphatase activity, percent of response related to 1 nM 17β-estradiol: 0%
Ishikawa uterine cells; 1 uM compound + 1 nM E2, antagonist mode
  Alkaline phosphatase activity, percent of response related to 1 nM 17β-estradiol: 1%
Ishikawa uterine cells; 1 uM compound, agonist mode
  Alkaline phosphatase activity, percent of response related to 1 nM 17β-estradiol: 0%
Ishikawa uterine cells; in words, from Table 2
  Behaviour in the uterine cell line (agonist/antagonist): pure estrogen antagonists
Rat uterus; 1 ug Cpd
  Uterine wet weight: 31.8 mg
Rat uterus; 1 ug E2 + 100 ug Cpd
  Uterine wet weight: 46.0 mg
Rat uterus; 100 ug Cpd
  Uterine wet weight: 41.6 mg
Rat uterus; in words, dosed alone or with 17β-estradiol
  Effect on rat uterus (agonist/antagonist): very efficacious antagonist
